Assays:
[1] = biological target: Macrophage colony-stimulating factor 1 receptor (Homo sapiens, UniProt P07333); assay: Inhibition of recombinant CSF1R after 1 hr by scintillation counter analysis in presence of gamma-[33P]ATP
[2] = biological target: Mitogen-activated protein kinase 9 (Homo sapiens, UniProt P45984); assay: Inhibition of recombinant JNK2A2 after 1 hr by scintillation counter analysis in presence of gamma-[33P]ATP
[3] = biological target: 5'-AMP-activated protein kinase subunit beta-1 (Homo sapiens, UniProt Q9Y478); assay: Inhibition of recombinant AMPK after 1 hr by scintillation counter analysis in presence of gamma-[33P]ATP
[4] = Cmax in mouse at 50 mg/kg, po measured at 8 hrs; format: ADME, organism-based; design: dose 50 mg/kg, route oral; details: in vivo
[5] = biological target: MAP kinase-activated protein kinase 3 (Homo sapiens, UniProt Q16644); assay: Inhibition of recombinant MK3 after 1 hr by scintillation counter analysis in presence of gamma-[33P]ATP
[6] = biological target: MAP/microtubule affinity-regulating kinase 3 (Homo sapiens, UniProt P27448); assay: Inhibition of recombinant CTAK1 after 1 hr by scintillation counter analysis in presence of gamma-[33P]ATP
[7] = biological target: Calcium/calmodulin-dependent protein kinase type IV (Homo sapiens, UniProt Q16566); assay: Inhibition of recombinant CAMK4 after 1 hr by scintillation counter analysis in presence of gamma-[33P]ATP
Chain of Calcium/calmodulin-dependent protein kinase type IV (Q16566 whole entry): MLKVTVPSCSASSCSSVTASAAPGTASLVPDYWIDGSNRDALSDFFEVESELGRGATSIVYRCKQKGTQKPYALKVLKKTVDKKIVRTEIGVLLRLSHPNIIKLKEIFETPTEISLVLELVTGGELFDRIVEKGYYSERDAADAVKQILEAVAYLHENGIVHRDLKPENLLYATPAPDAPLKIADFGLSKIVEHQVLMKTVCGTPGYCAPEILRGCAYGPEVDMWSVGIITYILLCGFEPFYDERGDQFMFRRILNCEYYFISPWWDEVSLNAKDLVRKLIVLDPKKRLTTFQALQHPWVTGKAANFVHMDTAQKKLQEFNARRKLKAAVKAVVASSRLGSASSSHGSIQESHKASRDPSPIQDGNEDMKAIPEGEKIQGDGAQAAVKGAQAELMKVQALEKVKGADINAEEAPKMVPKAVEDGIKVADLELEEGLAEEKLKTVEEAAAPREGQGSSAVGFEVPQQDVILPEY

[8] = biological target: Serine/threonine-protein kinase Sgk1 (Homo sapiens, UniProt O00141); assay: Inhibition of recombinant SGK after 1 hr by scintillation counter analysis in presence of gamma-[33P]ATP
[9] = biological target: RAC-alpha serine/threonine-protein kinase (Homo sapiens, UniProt P31749); assay: Inhibition of recombinant AKT1 after 1 hr by scintillation counter analysis in presence of gamma-[33P]ATP
[10] = biological target: Serine/threonine-protein kinase pim-2 (Homo sapiens, UniProt Q9P1W9); assay: Inhibition of recombinant PIM2 after 1 hr by scintillation counter analysis in presence of gamma-[33P]ATP
[11] = biological target: Serine/threonine-protein kinase pim-1 (Homo sapiens, UniProt P11309); assay: Inhibition of recombinant PIM1 after 1 hr by scintillation counter analysis in presence of gamma-[33P]ATP
[12] = biological target: Glycogen synthase kinase-3 beta (Homo sapiens, UniProt P49841); assay: Inhibition of recombinant GSK3B after 1 hr by scintillation counter analysis in presence of gamma-[33P]ATP
MIA PaCa-2 = assay: Antitumor activity against human MIAPaCa2 cells xenografted in SCID mouse assessed as tumor growth inhibition at 100 mg/kg/day, po measured on day 35 relative to vehicle-treated control; format: functional; details: MIA PaCa-2, 840 h, read-out: TGI
[13] = biological target: Receptor tyrosine-protein kinase erbB-4 (Homo sapiens, UniProt Q15303); assay: Inhibition of recombinant ERBB4 after 1 hr by scintillation counter analysis in presence of gamma-[33P]ATP
Chain of Receptor tyrosine-protein kinase erbB-4 (Q15303 whole entry): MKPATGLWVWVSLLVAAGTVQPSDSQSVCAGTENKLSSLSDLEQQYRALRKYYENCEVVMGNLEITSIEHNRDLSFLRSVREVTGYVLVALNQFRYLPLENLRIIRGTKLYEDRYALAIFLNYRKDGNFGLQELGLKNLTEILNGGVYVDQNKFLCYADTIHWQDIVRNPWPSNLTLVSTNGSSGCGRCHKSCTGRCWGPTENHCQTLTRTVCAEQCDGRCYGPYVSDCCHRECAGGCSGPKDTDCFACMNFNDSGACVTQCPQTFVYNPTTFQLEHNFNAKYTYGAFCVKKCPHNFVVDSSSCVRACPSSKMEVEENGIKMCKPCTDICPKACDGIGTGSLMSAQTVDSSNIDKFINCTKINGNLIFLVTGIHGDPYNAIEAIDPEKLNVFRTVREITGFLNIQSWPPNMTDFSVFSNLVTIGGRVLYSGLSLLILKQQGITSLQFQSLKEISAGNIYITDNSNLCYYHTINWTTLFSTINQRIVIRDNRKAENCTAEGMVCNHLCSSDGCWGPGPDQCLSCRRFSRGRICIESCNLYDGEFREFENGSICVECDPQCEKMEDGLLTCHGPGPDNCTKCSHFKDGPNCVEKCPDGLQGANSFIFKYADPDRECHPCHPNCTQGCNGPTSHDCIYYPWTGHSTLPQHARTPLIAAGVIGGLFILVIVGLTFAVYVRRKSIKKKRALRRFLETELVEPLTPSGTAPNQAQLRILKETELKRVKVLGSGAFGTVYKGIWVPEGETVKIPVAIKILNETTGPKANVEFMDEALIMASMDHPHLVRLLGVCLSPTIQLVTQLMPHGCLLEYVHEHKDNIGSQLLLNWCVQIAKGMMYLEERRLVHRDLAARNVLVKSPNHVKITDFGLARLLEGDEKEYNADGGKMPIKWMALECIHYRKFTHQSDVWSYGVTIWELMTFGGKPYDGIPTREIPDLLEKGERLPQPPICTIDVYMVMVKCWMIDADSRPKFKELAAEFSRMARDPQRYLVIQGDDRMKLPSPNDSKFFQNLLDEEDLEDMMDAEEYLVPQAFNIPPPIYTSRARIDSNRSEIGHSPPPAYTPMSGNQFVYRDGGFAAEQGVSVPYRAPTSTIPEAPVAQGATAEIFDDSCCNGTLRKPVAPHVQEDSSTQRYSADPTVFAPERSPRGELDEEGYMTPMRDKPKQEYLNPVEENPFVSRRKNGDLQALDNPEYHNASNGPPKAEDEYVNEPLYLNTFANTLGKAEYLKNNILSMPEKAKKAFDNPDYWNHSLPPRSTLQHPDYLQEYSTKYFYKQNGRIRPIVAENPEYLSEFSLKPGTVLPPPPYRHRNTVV

[14] = Volume of distribution in mouse; format: ADME, organism-based; details: in vivo
[15] = biological target: Serine/threonine-protein kinase PLK2 (Homo sapiens, UniProt Q9NYY3); assay: Inhibition of recombinant PLK2 after 1 hr by scintillation counter analysis in presence of gamma-[33P]ATP
[16] = biological target: Proto-oncogene tyrosine-protein kinase Src (Homo sapiens, UniProt P12931); assay: Inhibition of recombinant SRC after 1 hr by scintillation counter analysis in presence of gamma-[33P]ATP
[17] = biological target: BDNF/NT-3 growth factors receptor (Homo sapiens, UniProt Q16620); assay: Inhibition of recombinant TRKB after 1 hr by scintillation counter analysis in presence of gamma-[33P]ATP
[18] = biological target: Glycogen synthase kinase-3 alpha (Homo sapiens, UniProt P49840); assay: Inhibition of recombinant GSK3A after 1 hr by scintillation counter analysis in presence of gamma-[33P]ATP
[19] = biological target: Hepatocyte growth factor receptor (Homo sapiens, UniProt P08581); assay: Inhibition of recombinant c-MET after 1 hr by scintillation counter analysis in presence of gamma-[33P]ATP
[20] = biological target: Serine/threonine-protein kinase 3 (Homo sapiens, UniProt Q13188); assay: Inhibition of recombinant MST2 after 1 hr by scintillation counter analysis in presence of gamma-[33P]ATP
[21] = biological target: Tyrosine-protein kinase ITK/TSK (Homo sapiens, UniProt Q08881); assay: Inhibition of recombinant ITK after 1 hr by scintillation counter analysis in presence of gamma-[33P]ATP
[22] = biological target: Rho-associated protein kinase 1 (Homo sapiens, UniProt Q13464); assay: Inhibition of recombinant ROCK1 after 1 hr by scintillation counter analysis in presence of gamma-[33P]ATP
[23] = biological target: Vascular endothelial growth factor receptor 1 (Homo sapiens, UniProt P17948); assay: Inhibition of recombinant FLT1 after 1 hr by scintillation counter analysis in presence of gamma-[33P]ATP
[24] = Inhibition of recombinant CK2 after 1 hr by scintillation counter analysis in presence of gamma-[33P]ATP
[25] = biological target: Serine/threonine-protein kinase Nek2 (Homo sapiens, UniProt P51955); assay: Inhibition of recombinant NEK2 after 1 hr by scintillation counter analysis in presence of gamma-[33P]ATP
Chain of Serine/threonine-protein kinase Nek2 (P51955 whole entry): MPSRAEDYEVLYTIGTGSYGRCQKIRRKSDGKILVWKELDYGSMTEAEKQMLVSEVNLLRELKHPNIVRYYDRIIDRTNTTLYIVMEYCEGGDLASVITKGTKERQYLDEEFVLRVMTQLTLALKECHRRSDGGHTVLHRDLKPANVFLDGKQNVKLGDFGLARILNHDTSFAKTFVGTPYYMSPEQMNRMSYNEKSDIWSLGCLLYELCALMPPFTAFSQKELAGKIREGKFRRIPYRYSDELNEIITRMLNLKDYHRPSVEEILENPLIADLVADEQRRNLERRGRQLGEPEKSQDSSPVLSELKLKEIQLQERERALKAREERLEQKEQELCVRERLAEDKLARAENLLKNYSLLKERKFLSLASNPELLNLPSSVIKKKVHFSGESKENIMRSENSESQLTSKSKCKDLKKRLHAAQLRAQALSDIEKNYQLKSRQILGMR

[26] = biological target: Vascular endothelial growth factor receptor 2 (Homo sapiens, UniProt P35968); assay: Inhibition of recombinant KDR after 1 hr by scintillation counter analysis in presence of gamma-[33P]ATP
Chain of Vascular endothelial growth factor receptor 2 (P35968 whole entry): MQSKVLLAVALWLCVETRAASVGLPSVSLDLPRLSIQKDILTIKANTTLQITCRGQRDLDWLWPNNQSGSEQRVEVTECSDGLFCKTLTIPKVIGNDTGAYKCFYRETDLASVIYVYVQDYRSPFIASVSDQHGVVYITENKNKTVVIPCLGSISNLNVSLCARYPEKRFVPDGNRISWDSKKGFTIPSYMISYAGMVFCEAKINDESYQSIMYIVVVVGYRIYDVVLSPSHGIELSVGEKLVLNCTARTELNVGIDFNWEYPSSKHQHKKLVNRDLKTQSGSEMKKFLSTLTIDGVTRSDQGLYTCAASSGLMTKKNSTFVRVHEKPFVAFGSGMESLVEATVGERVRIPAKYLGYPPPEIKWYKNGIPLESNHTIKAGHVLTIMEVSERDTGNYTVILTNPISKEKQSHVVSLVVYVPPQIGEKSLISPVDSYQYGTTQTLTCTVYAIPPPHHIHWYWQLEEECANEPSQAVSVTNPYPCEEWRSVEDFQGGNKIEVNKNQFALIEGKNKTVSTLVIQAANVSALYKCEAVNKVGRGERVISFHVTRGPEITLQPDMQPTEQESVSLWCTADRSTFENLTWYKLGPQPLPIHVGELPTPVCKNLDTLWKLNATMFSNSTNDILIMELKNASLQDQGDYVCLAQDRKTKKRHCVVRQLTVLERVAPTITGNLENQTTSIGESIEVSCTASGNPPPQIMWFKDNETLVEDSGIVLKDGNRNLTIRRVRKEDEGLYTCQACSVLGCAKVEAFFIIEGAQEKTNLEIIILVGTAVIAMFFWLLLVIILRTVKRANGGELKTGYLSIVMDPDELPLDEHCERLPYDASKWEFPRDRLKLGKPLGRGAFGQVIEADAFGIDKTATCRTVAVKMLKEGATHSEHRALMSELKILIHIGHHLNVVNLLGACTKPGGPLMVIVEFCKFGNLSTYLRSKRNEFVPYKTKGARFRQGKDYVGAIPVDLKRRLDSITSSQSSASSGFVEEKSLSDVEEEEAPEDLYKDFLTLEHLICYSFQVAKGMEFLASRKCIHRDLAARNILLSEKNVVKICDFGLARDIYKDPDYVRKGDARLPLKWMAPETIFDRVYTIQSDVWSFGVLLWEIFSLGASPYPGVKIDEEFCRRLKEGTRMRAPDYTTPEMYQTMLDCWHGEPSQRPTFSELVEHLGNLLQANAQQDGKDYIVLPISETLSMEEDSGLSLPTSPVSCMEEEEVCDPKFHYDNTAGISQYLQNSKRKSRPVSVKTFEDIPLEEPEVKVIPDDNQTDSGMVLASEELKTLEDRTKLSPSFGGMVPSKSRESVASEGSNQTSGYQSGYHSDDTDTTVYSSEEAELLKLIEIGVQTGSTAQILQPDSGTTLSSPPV

[27] = biological target: Cyclin-dependent kinase 5 (Homo sapiens, UniProt Q00535); assay: Inhibition of recombinant CDK5 after 1 hr by scintillation counter analysis in presence of gamma-[33P]ATP
Chain of Cyclin-dependent kinase 5 (Q00535 whole entry): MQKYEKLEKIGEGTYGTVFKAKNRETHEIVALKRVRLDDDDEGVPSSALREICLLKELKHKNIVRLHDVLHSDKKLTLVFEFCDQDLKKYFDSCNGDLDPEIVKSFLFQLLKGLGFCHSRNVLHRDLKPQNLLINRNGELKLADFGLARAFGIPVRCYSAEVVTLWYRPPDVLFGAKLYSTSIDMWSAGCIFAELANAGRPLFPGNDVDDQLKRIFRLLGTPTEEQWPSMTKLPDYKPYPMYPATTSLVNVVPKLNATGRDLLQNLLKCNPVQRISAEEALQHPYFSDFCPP

Mus musculus = assay: Toxicity in SCID mouse xenografted with human MIAPaCa2 cells assessed as body weight loss at 100 mg/kg/day, po measured on day 26 to day 44; format: organism-based, MIA PaCa-2; design: route oral; details: in vivo
[28] = biological target: Tyrosine-protein kinase JAK2 (Homo sapiens, UniProt O60674); assay: Inhibition of recombinant JAK2 after 1 hr by scintillation counter analysis in presence of gamma-[33P]ATP
[29] = biological target: Dual specificity tyrosine-phosphorylation-regulated kinase 1A (Homo sapiens, UniProt Q13627); assay: Inhibition of recombinant DYRK1A after 1 hr by scintillation counter analysis in presence of gamma-[33P]ATP
[30] = biological target: RAC-beta serine/threonine-protein kinase (Homo sapiens, UniProt P31751); assay: Inhibition of recombinant AKT2 after 1 hr by scintillation counter analysis in presence of gamma-[33P]ATP
[31] = biological target: Interleukin-1 receptor-associated kinase 4 (Homo sapiens, UniProt Q9NWZ3); assay: Inhibition of recombinant IRAK4 after 1 hr by scintillation counter analysis in presence of gamma-[33P]ATP
[32] = biological target: Protein kinase C delta type (Homo sapiens, UniProt Q05655); assay: Inhibition of recombinant PKCdelta after 1 hr by scintillation counter analysis in presence of gamma-[33P]ATP
Ephrin type-A receptor 2 = Ephrin type-A receptor 2 (Homo sapiens, UniProt P29317); assay: Inhibition of recombinant EPHA2 after 1 hr by scintillation counter analysis in presence of gamma-[33P]ATP
Chain of Ephrin type-A receptor 2 (P29317 whole entry): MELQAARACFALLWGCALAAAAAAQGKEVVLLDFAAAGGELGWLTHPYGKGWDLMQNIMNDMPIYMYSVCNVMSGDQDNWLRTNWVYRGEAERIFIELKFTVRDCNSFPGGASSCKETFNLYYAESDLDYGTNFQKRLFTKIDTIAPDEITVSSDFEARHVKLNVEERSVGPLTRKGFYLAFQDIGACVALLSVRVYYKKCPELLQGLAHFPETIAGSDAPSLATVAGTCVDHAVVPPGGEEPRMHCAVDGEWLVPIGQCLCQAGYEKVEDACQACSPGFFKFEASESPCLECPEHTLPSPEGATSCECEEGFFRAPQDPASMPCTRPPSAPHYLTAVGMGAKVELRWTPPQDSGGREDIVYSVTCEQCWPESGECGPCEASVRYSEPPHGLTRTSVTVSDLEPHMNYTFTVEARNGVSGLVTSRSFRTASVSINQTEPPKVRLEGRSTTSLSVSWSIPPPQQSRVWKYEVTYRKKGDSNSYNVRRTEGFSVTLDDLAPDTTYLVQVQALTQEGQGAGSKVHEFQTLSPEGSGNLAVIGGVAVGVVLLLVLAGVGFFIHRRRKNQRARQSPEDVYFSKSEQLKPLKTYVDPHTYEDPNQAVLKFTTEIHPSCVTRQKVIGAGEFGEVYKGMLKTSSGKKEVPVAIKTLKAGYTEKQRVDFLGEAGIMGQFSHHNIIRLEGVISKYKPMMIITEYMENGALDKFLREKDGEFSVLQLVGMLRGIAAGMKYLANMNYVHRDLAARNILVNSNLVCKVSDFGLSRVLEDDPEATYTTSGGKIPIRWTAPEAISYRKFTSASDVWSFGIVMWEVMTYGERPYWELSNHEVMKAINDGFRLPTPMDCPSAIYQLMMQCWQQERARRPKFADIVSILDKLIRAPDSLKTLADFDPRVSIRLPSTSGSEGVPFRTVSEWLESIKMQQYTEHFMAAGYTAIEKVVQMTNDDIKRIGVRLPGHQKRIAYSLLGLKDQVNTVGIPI

Ki [1]: 2100 nM
Ki [2]: 262 nM
Ki [3]: 333 nM
Cmax [4]: 3.3 µM
Ki [5]: > 9200 nM
Ki [6]: 4830 nM
Ki [7]: > 8500 nM
Ki [8]: 260 nM
Ki [9]: > 8000 nM
Ki [10]: > 1400 nM
Ki [11]: 1600 nM
Ki [12]: 102 nM
Ki [13]: > 3700 nM
Vd [14]: 3.7 L/kg
Ki [15]: 2 nM
Ki [16]: > 1900 nM
Ki [17]: > 4500 nM
Ki [18]: 21 nM
Ki [19]: 1600 nM
Ki [20]: 2900 nM
Ki [21]: > 1500 nM
Ki [22]: 220 nM
Ki [23]: 14 nM
Ki [24]: 276 nM
Ki [25]: > 9200 nM
Ki [26]: 98 nM
Ki [27]: 416 nM
Ki [28]: 920 nM
Ki [29]: > 6800 nM
Ki [30]: > 8000 nM
Ki [31]: > 9900 nM
Ki [32]: 7.9 nM
Ki (Ephrin type-A receptor 2): > 2800 nM
Structure (SMILES): CC(C)(C)Nc1c(Nc2ccnc(Nc3ccc(-c4ccncc4)cc3)n2)c(=O)c1=O
inhibition in vivo at 100 mg/kg/day (MIA PaCa-2): 38%
Activity (Mus musculus): Non-toxic
